According to US8569362B2, “Polyketide molecules as anticancer agents” (Pierre Fabre Medicament, priority 2009, dated 2013):

Tests used:
Format in all cases: cell-based
MCF7 (breast cancer) = test: Growth inhibition of human cancer cell lines, ATP-lite luminescence, MCF7; settings: MCF7, 48 h incubation, cell survival by ATP luminescence
Protocol: (§1) The cancerous cells [lines A549 (non small cell lung cancer), BxPC3 (cancer of the pancreas), LoVo (colon cancer), MCF7 (breast cancer), Namalwa (Burkitt's lymphoma) and SK-OV-3 (ovarian cancer)] were cultured in a 96-well plate in RPMI 1640 medium without phenol red (Seromed) to which was added 10% of foetal veal serum (100 μl/well, 1 to 3.10^4 cells/ml depending on the considered line). After an incubation of 24 h at 37° C. in an incubator with 5% CO2, the medium was replaced by that containing the compound to be tested (molecule I-1), after which the plates were incubated for an additional 48 h. Cell survival was evaluated by measurement of the luminescence after release of ATP in the medium using the cell lysis solutions, luciferase and luciferine contained in the ATP-lite-MTM kit, as recommended by the manufacturer (Packard, Rungis, France). Each experimental condition was tested at least three times in sextuplets. The table below presents the IC50 data (expressed in M) of the molecule I-1, as a function of the different cell lines tested.

[1] = tested on: Namalwa (Burkitt's lymphoma); test: Growth inhibition of human cancer cell lines, ATP-lite luminescence, Namalwa; settings: 48 h incubation, cell survival by ATP luminescence
Protocol: as §1

SK-OV-3 (ovarian cancer) = test: Growth inhibition of human cancer cell lines, ATP-lite luminescence, SK-OV-3; settings: SK-OV-3, 48 h incubation, cell survival by ATP luminescence
Protocol: as §1

[2] = tested on: BxPC3 (cancer of the pancreas); test: Growth inhibition of human cancer cell lines, ATP-lite luminescence, BxPC3; settings: BXPC-3, BxPC3, 48 h incubation, cell survival by ATP luminescence
Protocol: as §1

LoVo (colon cancer) = test: Growth inhibition of human cancer cell lines, ATP-lite luminescence, LoVo; settings: 48 h incubation, cell survival by ATP luminescence
Protocol: as §1

[3] = tested on: HeLa tumoral cells (human carcinoma); test: Cellular phenotype (immunofluorescence and microscopy; α-tubulin, γ-tubulin, DAPI); settings: 24 h treatment
Protocol: The HeLa tumoral cells (human carcinoma) were cultured for 24 h on 12 mm diameter glass slides, placed in 24-well culture plates (7.10^3 cells per well).
The cells were then treated for a new period of 24 h by the molecule I-1 at the tested concentrations. […] The DNA was labelled with DAPI (0.2 μg/ml—15 minutes—37° C.). After the different labellings, the slides were dried and mounted in a Vectashield mounting liquid (AbCys, France), before being observed through an epi-fluorescence microscope (Axiovert 200M; objective×63 Plan Apochromat NA, 1.4; ZEISS, France).

[4] = tested on: A549 (non small cell lung cancer); test: Growth inhibition of human cancer cell lines, ATP-lite luminescence, A549; settings: A549, 48 h incubation, cell survival by ATP luminescence
Protocol: as §1

COC(CCC(C)C1(O)CC(C(C)/C=C(C)/C=C(\C)C(O)C(C)C(O)C(C)C(OC)C(C)/C=C/C=C/C=C/C(=O)O)OC(=O)C1O)CC(CC(O)C(C)C/C=C/C(C)C1CC(C(C)CCC(C)O)C(O)C(=O)O1)OC (stereo not shown) [molecule I-1]
IC50 (MCF7 (breast cancer)): 0.011 nM | IC50 [1]: 1.1 nM | IC50 (SK-OV-3 (ovarian cancer)): 0.33 nM | IC50 [2]: 0.47 nM | IC50 (LoVo (colon cancer)): 0.081 nM | Centrosomes of interphasic cells (γ-tubulin labelling) ([3]; between 5.10^−9M and 5.10^−8M): often separated and normally labelled by γ-tubulin | Microtubular cytoskeleton of interphasic cells (labelling by α-tubulin) ([3]; between 5.10^−9M and 5.10^−8M): devoid of microtubular cytoskeleton | Centrosomes of mitotic cells (γ-tubulin labelling) ([3]; between 10^−9M and 5.10^−8M): normally present and labelled by γ-tubulin | Mitotic cells: mitotic block and microtubules (α-tubulin labelling) ([3]; dose effect between 10^−9M and 5.10^−8M): blocked in prometaphase without microtubules | IC50 [4]: 0.82 nM
